Results on 13 compounds are retold here after ChEMBL document CHEMBL1133622, “Probes for narcotic receptor-mediated phenomena. 27. Synthesis and pharmacological evaluation of selective delta-opioid receptor agonists from 4-[(alphaR)-alpha-(2S,5R)-4-substituted-2, 5-dimethyl-1-piperazinyl-3-methoxybenzyl]-N,N-diethylbenzamides and their enantiomers” (J Med Chem, 2000).

For assay [1], the target named is Delta-type opioid receptor (Rattus norvegicus) (UniProt P33533). As to the kind of experiment: Percent stimulation of [35S]GTP-gamma-S, binding at 10 uM. The class given is functional.
Chain of Delta-type opioid receptor (Rattus norvegicus) (P33533 whole entry): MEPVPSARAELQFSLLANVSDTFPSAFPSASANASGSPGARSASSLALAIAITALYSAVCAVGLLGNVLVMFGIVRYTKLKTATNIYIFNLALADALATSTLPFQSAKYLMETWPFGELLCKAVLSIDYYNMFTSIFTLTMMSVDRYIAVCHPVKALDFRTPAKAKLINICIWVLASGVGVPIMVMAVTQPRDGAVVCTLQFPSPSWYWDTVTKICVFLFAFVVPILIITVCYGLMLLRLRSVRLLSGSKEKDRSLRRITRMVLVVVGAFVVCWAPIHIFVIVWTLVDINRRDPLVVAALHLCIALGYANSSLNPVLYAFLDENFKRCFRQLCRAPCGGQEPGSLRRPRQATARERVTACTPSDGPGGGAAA
Assay [2] deals with Delta-type opioid receptor (Rattus norvegicus, UniProt P33533). As to the kind of experiment: Inhibition of [3H]-DADLE binding to rat brain membrane Opioid receptor delta 1.
Chain of Delta-type opioid receptor (P33533 whole entry): as above
For assay [3], the target named is Delta-type opioid receptor (Rattus norvegicus) (UniProt P33533). The experiment in a line: Percent inhibition of SNC80 stimulated [35S]GTP-gamma-S, binding at 10 uM. Type of assay: functional.
For assay [4], the species on record is Rattus norvegicus. As to the kind of experiment: (§1) Percent inhibition of SNC80 stimulated [35S]GTP-gamma-S, binding by the compound (10 uM). The class given is functional. Background: GTPγS is a poorly hydrolysed GTP analogue; its binding reports G protein activation.
Assay [5] concerns the target Delta-type opioid receptor (Rattus norvegicus) (UniProt P33533). The assay is described as §1. The class given is functional.
The species entered for assay [6] is Rattus norvegicus. As to the kind of experiment: Percent stimulation of [35S]GTP-gamma-S, binding by the compound (10 uM). Type of assay: functional.

By Ki is commonly meant a dissociation constant, usually derived from enzyme kinetics or from competition with a known ligand. The low end stands for a stronger hold on the target, the high end for a looser hold on the target. The term inhibition denotes the relative decrease from the control value, in per cent. Compound `C=C(C)CN1C[C@H](C)N([C@H](c2ccc(C(=O)N(CC)CC)cc2)c2cccc(OC)c2)C[C@H]1C` displayed a Stimulation in assay [1] of 119%. Further, in assay [2], the affinity, expressed as Ki, was 4.8 nM. The same compound gave an inhibition in assay [3] of 2.3%.

For the compound `CCN(CC)C(=O)c1ccc([C@H](c2cccc(OC)c2)N2C[C@@H](C)N(CCCc3ccccc3)C[C@@H]2C)cc1`, the Stimulation in assay [1] turned out to be 18%. In addition, in assay [2], the Ki came to 16.7 nM. Moreover, in assay [3], the inhibition was 13%.

As usually defined, the Inhibition is the percentage by which the read-out fell short of the control. Read a high Inhibition as a response far below the control. Consider `CCCCN1C[C@H](C)N([C@H](c2ccc(C(=O)N(CC)CC)cc2)c2cccc(OC)c2)C[C@H]1C`, for which the Stimulation in assay [1] worked out at 66%. In assay [2], this compound yielded a Ki of 2.7 nM. Besides, in the assay listed under Rattus norvegicus [4], the Inhibition was determined as 19%.

On to `CCCCCN1C[C@H](C)N([C@H](c2ccc(C(=O)N(CC)CC)cc2)c2cccc(OC)c2)C[C@H]1C`, for which the Stimulation in assay [1] is 26%. The compound further registered an inhibitory constant (Ki) in assay [2] of 4.7 nM. Moreover, the inhibition in assay [5] is 28%.

As for `CCN(CC)C(=O)c1ccc([C@H](c2cccc(OC)c2)N2C[C@@H](C)N(CC3CC3)C[C@@H]2C)cc1`, in assay [1], the Stimulation amounted to 48%. In assay [2], affinity was put at a Ki of 3.5 nM. In addition, the inhibition in assay [5] is 18%.

For the compound `C=CCN1C[C@H](C)N([C@H](c2ccc(C(=O)N(CC)CC)cc2)c2cccc(OC)c2)C[C@H]1C` [SNC-80], the Inhibition in the assay listed under Rattus norvegicus [4] was 0%. The same compound had a Stimulation in the assay listed under Rattus norvegicus [6] of 128%.

On to `CCN(CC)C(=O)c1ccc([C@H](c2cccc(OC)c2)N2C[C@@H](C)N(CC)C[C@@H]2C)cc1`, for which the Stimulation in assay [1] was 45%. The compound further displayed a Ki in assay [2] of 5.2 nM. In assay [5], the inhibition was 13%.

The compound `CCN(CC)C(=O)c1ccc([C@H](c2cccc(OC)c2)N2C[C@@H](C)N(C)C[C@@H]2C)cc1` came in with a Stimulation in assay [1] of 25%. This compound also gave an inhibition constant Ki in assay [2] of 4.5 nM. The compound further gave an inhibition in assay [3] of 18%.

Take `CCN(CC)C(=O)c1ccc([C@H](c2cccc(OC)c2)N2C[C@@H](C)NC[C@@H]2C)cc1`: the Stimulation in assay [1] was found to be 63%. The affinity in assay [2] corresponds to a Ki of 4.7 nM. Also, the inhibition in assay [3] worked out at 11%.

`CCN(CC)C(=O)c1ccc([C@H](c2cccc(OC)c2)N2C[C@@H](C)N(Cc3ccccc3)C[C@@H]2C)cc1` showed a Stimulation in assay [1] of 144%. The compound also had an inhibition constant Ki in assay [2] of 6.2 nM. Also, the inhibition in assay [3] worked out at 0%.

Turning to `CCN(CC)C(=O)c1ccc([C@H](c2cccc(OC)c2)N2C[C@@H](C)N(CCc3ccccc3)C[C@@H]2C)cc1`, in assay [1], the Stimulation was found to be 10%. In assay [2], this compound returned a Ki of 30.6 nM. In assay [3], this compound showed an inhibition of 30%.

In the case of `C/C=C/CN1C[C@H](C)N([C@H](c2ccc(C(=O)N(CC)CC)cc2)c2cccc(OC)c2)C[C@H]1C`, the Stimulation in assay [1] turned out to be 130%. In assay [2], the affinity corresponds to a Ki of 1.9 nM. Also, in assay [3], the inhibition amounted to 6.3%.

In assay [1], `CCCCCCN1C[C@H](C)N([C@H](c2ccc(C(=O)N(CC)CC)cc2)c2cccc(OC)c2)C[C@H]1C` yielded a Stimulation of 21%. The Ki in assay [2] was 10.4 nM. For the same compound, in assay [3], the inhibition came to 34%.
